Laboratory results reported in publication PMC10313921, “A living ex vivo platform for functional, personalized brain cancer diagnosis” (Cell Reports Medicine, 2023).

Key:
[1] = system: PIS patient tumor tissue (intracranial sarcoma); assay: Drug screening of uncultured patient tumor tissue PIS on OBSCs; type: cell-based, human; conditions: Homo sapiens; PIS on OBSCs; dose required to kill 90% of the tumor
Outline: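 Uncultured patient tumour tissue, transduced with mCherry-FLuc lentivirus, engrafted on organotypic brain slice cultures (OBSCs); six drug concentrations or X-ray dosing given one day after seeding, n = 4 foci per concentration. Bioluminescence with luciferin read three days post-treatment, normalised to day one and untreated controls; drug sensitivity score combines weighted therapeutic-window parameters versus OBSC toxicity (−100 to 100).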

[2] = system: GBM8 (high-passage patient-derived GBM line); assay: Drug screening of GBM8 tumor foci on OBSCs; type: cell-based, human
Outline: (§1)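 Bioluminescence viability readout, 3 d post-treatment, normalized to day-1 tumor fluorescence vs untreated; 6 drug concentrations or XRad, n = 4 foci per concentration. Drug sensitivity score sums weighted parameters comparing tumor kill with OBSC toxicity, ranging −100 to 100.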

[3] = system: MS21 (low-passage patient-derived GBM line); assay: Drug screening of MS21 tumor foci on OBSCs; type: cell-based, human
Outline: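 Luciferase-expressing tumor cells seeded onto organotypic brain slice cultures; one day later treated with six drug concentrations in the medium, or X-irradiation. Bioluminescence read three days after treatment, normalised to day-one fluorescence and untreated controls. Dose-response values by linear interpolation; DSS combines weighted tumor-kill versus slice-toxicity parameters (−100 to 100).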

[4] = system: MG-II patient tumor tissue (WHO grade II meningioma); assay: Drug screening of uncultured patient tumor tissue MG-II on OBSCs; type: cell-based; conditions: Homo sapiens, dose required to kill 90% of the tumor
Method: (§2) Tumor cells were seeded onto OBSCs 2h after slicing as described above. One day after tumor seeding, six concentrations of each drug were diluted in the media underneath each culture insert, or XRad was applied using an X-Rad 320 Precision X-ray machine (n = 4 tumor foci per concentration; n ≥ 24 tumor foci per drug per cell line). Three days after treatment, the bioluminescence of live tumor cells was measured using an AMI optical imager (Spectral Instruments) and dose-response curves were generated. Tumor survival was normalized to day one tumor fluorescence and compared to an untreated control group.
To engraft onto OBSCs, the cryopreserved/thawed or fresh brain tumor tissue was filtered through a 100 μm cell strainer. Each 50 mg of tissue was transfected with 1mL mcherry-FLuc Lentivirus at 1.5e7 vg/ml with 1μL polybrene for 4h at 37°C. After incubation, the brain tumor tissue was washed with PBS three times to remove the residual virus and reconstituted in PBS with a final volume of 150 μL. Then the tissue solution was engrafted atop OBSCs at ∼0.5 mg tissue in 3 μL of PBS on each hemisphere of the slice. The OBSC engrafted with patient tumor tissue was incubated at 37°C with 5% CO2 and 95% humidity. The BSM was changed after 24h and subsequently every 3 days. Tumor treatment studies were executed as described above for tumor lines. The viability of the patient tissue was measured by an AMI optical imaging system with the addition of 1.5 mg/mL luciferin underneath the culture insert.
Several weighted parameters were factored into an overall drug sensitivity score.
(§3) For DSS parameters 1–6, therapeutic windows were calculated by comparing OBSC toxicity and tumor response at the doses where tumor kill passed through the DSS parameter (Table S1 and S3). For DSS parameter 7, the therapeutic window was calculated by comparing the slopes through the tumor EC50 and the OBSC tox EC50. For DSS parameter 8, the therapeutic window was calculated by comparing the areas under tumor kill and OBSC tox curves. Normalized therapeutic window ratios for DSS parameters 1–8 within each drug-tumor-OBSC interaction were calculated in the following manner: within each window, values ranged from +1 to −1, where values approaching +1 signify increasing tumor kill relative to normal tissue toxicity, and values approaching −1 indicate agents where tumors remained highly viable while toxicity to the normal OBSC tissue was elevated. DSS parameters 9–11 were determined based on the behavior of the tumor in response to the drug, as defined above.
All individually weighed parameters were added together to generate the DSS. Overall DSS from 0 to 100 signify increasing efficacy in tumor kill relative to OBSC toxicity, while scores from 0 to −100 describe scenarios in which tumors thrive more effectively than OBSCs for a given treatment. Dose-response values were calculated via linear interpolation of raw data, not from best-fit curve equations.

[5] = system: MB231Br (breast cancer metastasis to brain); assay: Drug screening of MB231Br tumor foci on OBSCs; type: cell-based, human
[6] = system: U373WT (wild-type established GBM line); assay: Drug screening of U373WT tumor foci on OBSCs; type: cell-based, human; conditions: U373 WT on OBSCs
Outline: as §1

[7] = system: U373KO (RAD18 knockout of U373WT via CRISPR); assay: Drug screening of U373KO tumor foci on OBSCs; type: cell-based, human; conditions: U373 KO on OBSCs
Outline: as §1

[8] = system: MMG-II patient tumor tissue (WHO grade II meningioma, multiple tumors); assay: Drug screening of uncultured patient tumor tissue MMG-II on OBSCs; type: cell-based; conditions: Homo sapiens, dose required to kill 90% of the tumor
Method: as §2
To engraft onto OBSCs, the cryopreserved/thawed or fresh brain tumor tissue was filtered through a 100 μm cell strainer. Each 50 mg of tissue was transfected with 1mL mcherry-FLuc Lentivirus at 1.5e7 vg/ml with 1μL polybrene for 4h at 37°C. After incubation, the brain tumor tissue was washed with PBS three times to remove the residual virus and reconstituted in PBS with a final volume of 150 μL. […] The viability of the patient tissue was measured by an AMI optical imaging system with the addition of 1.5 mg/mL luciferin underneath the culture insert. […]
as §3, with “DSS parameters 9–11 were determined based on the behavior of the tumor in response to the drug, as defined above.” left out

[9] = system: PDIPG (low-passage pediatric patient-derived line); assay: Drug screening of PDIPG tumor foci on OBSCs; type: cell-based, human
Outline: as §1

[10] = system: LN229 (established GBM line); assay: Drug screening of LN229 tumor foci on OBSCs; type: cell-based, human
Outline: as §1

[11] = Homo sapiens, U373 MG, dose required to kill 50% of the tumor
[12] = Homo sapiens, U373 MG, dose required to kill 90% of the tumor
[13] = Homo sapiens, U373 MG, dosed day 1, survival via bioluminescence day 4, linear interpolation
[14] = area under the dose-response curve, trapezoidal rule
[15] = dose required to kill 10% of the tumor
[16] = dose required to kill 25% of the tumor

**Q.** For `Nc1ccn([C@@H]2O[C@H](CO)[C@@H](O)C2(F)F)c(=O)n1` [Gemcitabine], which EC90 [1] is on record?
**A.** > 10 µM

**Q.** And the “Killing at highest dose” value ([2]; GBM8 on OBSCs)?
**A.** 9.80E-01 fraction of tumor population killed

**Q.** What about the AUC ([2]; GBM8 on OBSCs, area under the dose-response curve, trapezoidal rule) of the same molecule?
**A.** 2.79E+00

**Q.** What about the EC10 ([2]; GBM8 on OBSCs, dose required to kill 10% of the tumor) of the same molecule?
**A.** 0.0676 µM

**Q.** What about the EC25 ([2]; GBM8 on OBSCs, dose required to kill 25% of the tumor) of the same molecule?
**A.** 0.169 µM

**Q.** What about the EC75 ([2]; GBM8 on OBSCs, dose required to kill 75% of the tumor) of the same molecule?
**A.** 0.533 µM

**Q.** And the Slope ([2]; GBM8 on OBSCs, slope through the EC50)?
**A.** -1.48E+00

**Q.** And the EC90 ([2]; Homo sapiens)?
**A.** 2 µM

**Q.** And the EC50 ([2]; Homo sapiens, GBM8 on OBSCs, dose required to kill 50% of the tumor, read-out: EC50)?
**A.** 0.338 µM

**Q.** And the IC50 ([2]; Homo sapiens, GBM8 on OBSCs, dosed day 1, survival via bioluminescence day 4, linear interpolation, read-out: IC50)?
**A.** 0.34 µM

**Q.** And the EC90 ([3]; Homo sapiens)?
**A.** > 10 µM

**Q.** What about the EC50 ([3]; Homo sapiens, MS21 on OBSCs, dose required to kill 50% of the tumor, read-out: EC50) of the same molecule?
**A.** > 10 µM

**Q.** And the IC50 ([3]; Homo sapiens, MS21 on OBSCs, dosed day 1, survival via bioluminescence day 4, linear interpolation, read-out: IC50)?
**A.** > 10 µM

**Q.** And the “Killing at highest dose” value ([3]; MS21 on OBSCs)?
**A.** -1.20E-01 fraction of tumor population killed

**Q.** And the EC90 [4]?
**A.** > 10 µM

**Q.** And the EC50 ([5]; Homo sapiens, MB231BR on OBSCs, dose required to kill 50% of the tumor)?
**A.** > 10 µM

**Q.** And the EC90 ([5]; Homo sapiens, MB231BR on OBSCs, dose required to kill 90% of the tumor)?
**A.** > 10 µM

**Q.** And the IC50 ([5]; Homo sapiens, MB231Br on OBSCs, dosed day 1, survival via bioluminescence day 4, linear interpolation)?
**A.** > 10 µM

**Q.** And the “Killing at highest dose” value ([5]; MB231BR on OBSCs)?
**A.** -7.90E-01 fraction of tumor population killed

**Q.** What about the Slope ([5]; MB231BR on OBSCs, slope through the EC50) of the same molecule?
**A.** 1.56E-02

**Q.** And the EC50 [6, 11]?
**A.** > 10 µM

**Q.** What about the EC90 [6, 12] of the same molecule?
**A.** > 10 µM

**Q.** What about the IC50 [6, 13] of the same molecule?
**A.** > 10 µM

**Q.** What about the “Killing at highest dose” value [6] of the same molecule?
**A.** 3.30E-01 fraction of tumor population killed

**Q.** And the AUC [6, 14]?
**A.** 7.29E+01

**Q.** What about the EC10 [6, 15] of the same molecule?
**A.** 0.385 µM

**Q.** And the EC25 [6, 16]?
**A.** 50 µM

**Q.** And the Slope ([6]; slope through the EC50)?
**A.** -1.60E-03

**Q.** What about the EC50 [7, 11] of the same molecule?
**A.** 0.868 µM

**Q.** What about the EC90 [7, 12] of the same molecule?
**A.** > 10 µM

**Q.** And the IC50 [7, 13]?
**A.** 0.9 µM

**Q.** And the “Killing at highest dose” value [7]?
**A.** 6.20E-01 fraction of tumor population killed

**Q.** What about the AUC [7, 14] of the same molecule?
**A.** 3.67E+01

**Q.** What about the EC10 [7, 15] of the same molecule?
**A.** 0.139 µM

**Q.** And the EC25 [7, 16]?
**A.** 0.347 µM

**Q.** What about the Slope ([7]; slope through the EC50) of the same molecule?
**A.** -3.80E-01

**Q.** And the EC90 [8]?
**A.** > 10 µM

**Q.** And the EC90 ([9]; Homo sapiens)?
**A.** > 10 µM

**Q.** And the EC50 ([9]; Homo sapiens, PDIPG on OBSCs, dose required to kill 50% of the tumor, read-out: EC50)?
**A.** > 10 µM

**Q.** And the IC50 ([9]; Homo sapiens, PDIPG on OBSCs, dosed day 1, survival via bioluminescence day 4, linear interpolation, read-out: IC50)?
**A.** > 10 µM

**Q.** And the “Killing at highest dose” value ([9]; PDIPG on OBSCs)?
**A.** 4.80E-01 fraction of tumor population killed

**Q.** And the AUC ([9]; PDIPG on OBSCs, area under the dose-response curve, trapezoidal rule)?
**A.** 5.72E+01

**Q.** And the EC25 ([9]; PDIPG on OBSCs, dose required to kill 25% of the tumor)?
**A.** 0.284 µM

**Q.** And the Slope ([9]; PDIPG on OBSCs, slope through the EC50)?
**A.** -3.03E-04

**Q.** And the “Killing at highest dose” value [10]?
**A.** 2.80E-01 fraction of tumor population killed

**Q.** What about the EC50 ([10]; Homo sapiens, LN-229, dose required to kill 50% of the tumor) of the same molecule?
**A.** > 10 µM

**Q.** And the EC90 ([10]; Homo sapiens, LN-229, dose required to kill 90% of the tumor)?
**A.** > 10 µM

**Q.** And the IC50 ([10]; Homo sapiens, LN-229, dosed day 1, survival via bioluminescence day 4, linear interpolation)?
**A.** > 10 µM

**Q.** And the AUC [10, 14]?
**A.** 7.06E+01

**Q.** And the EC10 [10, 15]?
**A.** 6.23 µM

**Q.** What about the EC25 [10, 16] of the same molecule?
**A.** 8.4 µM

**Q.** And the Slope ([10]; slope through the EC50)?
**A.** -5.45E-03
